From patent US11839210B1, “Plant growth promoter with strigolactones regulation activities” (King Abdullah University of Science and Technology, priority 2017, dated 2023)

Legend:
[1] = test system: Zaxinone Synthase (ZAS); assay: qRT-PCR of ZAS transcript levels in rice after zaxinone or GR24; type: in vivo, rice (Nipponbare); settings: WT rice, phosphate starvation, 5 μM, 6 h
Procedure: (§1) Total RNA was extracted from the roots and shoots using a Qiagen Plant RNeasy Kit according to the manufacturer's instruction. cDNA was synthesized from 1 μg of total RNA using iScript cDNA Synthesis Kit (BIO-RAD Laboratories, Inc, 2000 Alfred Nobel Drive, Hercules, CA, Cat. No #170-8890) according to instructions in the user manual. For mycorrhizal samples, single-strand cDNA was synthesized from 1 μg of total RNA using Super-Script II (Invitrogen) according to instructions in the user manual. Primers used for real-time quantitative RT-PCR (qRT-PCR) analysis are listed below in Table 3. qRT-PCR was performed using SYBR Green Master Mix (Applied Biosystems; www.lifetechnologies.com) in a StepOnePlus (Life Technologies, Carlsbad, CA, USA). For mycorrhizal samples, qRT-PCR was performed using a Rotor-Gene Q 5plex HRM Platform (Qiagen). The 2-ΔCt method was used to calculate the relative gene expression levels and rice Ubiquitin (OsUBQ or OsRubQ1) gene was used as the internal control to normalize target gene expression.
FIGS. 14A-14C show transcript levels of Zaxinone Synthase (ZAS) in wild type roots and shoots. In FIG. 14A, the relative expression levels of ZAS under normal (+Pi) and phosphate-starved (−Pi) conditions in Nipponbare wild-type (WT) roots and shoots is seen. The expression levels in the WT root were normalized to 1. In FIG. 14B, the relative expression levels of ZAS under −Pi conditions with 5 μM of Zaxinone and GR24 treatment in WT rice root and shoot is seen. Three weeks-old seedlings were transferred to new hydroponic pots containing fresh media with or without chemicals for 6 h. The expression levels in the WT-mock were normalized to 1 and the expression levels were detected by qRT-PCR. Ubiquitin was used as a reference gene. Bars represent mean±SD (n=3). Mock treatment (0.1% acetone). Different letters above each bar denote significant difference following a One-way ANOVA test (P<0.05).

[2] = test system: SL biosynthesis genes (D27, CCD7, CCD8 and CO); assay: qRT-PCR of transcript levels of SL biosynthesis genes (all four together) in rice roots; type: in vivo; settings: Shiokari wild-type and d3 seedlings, phosphate-starved, 5 μM, 6 h
Procedure: For the analysis of SL transcript levels in the zas mutant, one week-old seedlings were grown hydroponically in half-strength modified Hoagland nutrient solution with K2HPO4·2H2O (+Pi) and without K2HPO4·2H2O (−Pi) for 7 days. Seedlings were further treated with zaxinone for 6 h and tissues were collected.
as §1
Two week-old seedlings were grown for another one week in −Pi solution and then transferred to new vials containing fresh −Pi solution with and without the indicated concentrations (2.5 μM, 5 μM, 10 μM and 20 μM) of zaxinone for 6 h and samples were collected. SL biosynthetic genes expression for D27 (FIG. 19A), CCD7 […], CCD8 (FIG. 19C), and CO (Carlactone oxidase-FIG. 19D) in WT and zas mutants. […] The expression levels were detected by quantitative RT-PCR. Ubiquitin was used as a reference gene and the expression levels in the WT-mock were normalized to 1. Bars represent mean±SD (n=3). Different letters above each bar denote significant difference following a One-way ANOVA test (P<0.05).
Transcript levels of SL biosynthesis genes, D27 (FIG. 24C), CCD7/D17 (FIG. 24D), CCD8/D10 (FIG. 24E) and OsCO (Carlactone oxidase—FIG. 24F) in root tissues were collected for SL quantification. The expression levels were detected by qRT-PCR. Ubiquitin was used as a reference gene and the expression levels in the WT-mock were normalized to 1. Two week-old seedlings were grown for another one week in −Pi solution and then transferred to new vials containing fresh −Pi solution with and without 5 μM of zaxinone and GR24 for 6 h and samples were collected. Bars represent mean±SD (n=3). Different letters above each bar denote significant difference following a One-way ANOVA test (P<0.05).

SMILES: CC1=C[C@H](O/C=C2/C(=O)O[C@@H]3c4ccccc4C[C@H]23)OC1=O [GR24, reference compound]
- ZAS transcript levels in root tissues [1]: negatively impacted
- SL transcript levels in roots [2]: affected the transcript levels only in wild-type seedlings
